Laboratory results: ChEMBL document CHEMBL4828736, “Discovery of ASTX029, A Clinical Candidate Which Modulates the Phosphorylation and Catalytic Activity of ERK1/2” (J Med Chem, 2021)

Tests used:
in vitro [1] = conditions: CD1, mouse, microsomes
in vitro [2] = conditions: human, microsomes
in vivo [3] = conditions: BALB/c, mouse, iv, 0.5 mg/kg
in vivo [4] = conditions: BALB/c, mouse, iv, 0.5 mg/kg; remark: listed apart in the source
in vivo [5] = conditions: BALB/c, mouse, po, 5 mg/kg
in vivo [6] = conditions: BALB/c, mouse, po, 5 mg/kg; remark: listed apart in the source
in vivo [7] = conditions: BALB/c, mouse, po, 5 mg/kg; remark: listed apart in the source
physchem = conditions: buffer, pH 7.4
CYP3A4 = CYP3A4 (Homo sapiens, UniProt P08684); assay: in vitro; conditions: recombinant enzyme
COLO 205 = assay: cells; assay type: functional, cell-based; conditions: Homo sapiens, COLO 205, 96 h
A-375 = assay: cells; assay type: functional, cell-based; conditions: Homo sapiens, A-375, 96 h
[8] = molecular target: Mitogen-activated protein kinase 1 (Homo sapiens) (UniProt P28482); conditions: dose 1.0 nM, time 30.0 min
Sequence of Mitogen-activated protein kinase 1 (Homo sapiens) (P28482 whole entry): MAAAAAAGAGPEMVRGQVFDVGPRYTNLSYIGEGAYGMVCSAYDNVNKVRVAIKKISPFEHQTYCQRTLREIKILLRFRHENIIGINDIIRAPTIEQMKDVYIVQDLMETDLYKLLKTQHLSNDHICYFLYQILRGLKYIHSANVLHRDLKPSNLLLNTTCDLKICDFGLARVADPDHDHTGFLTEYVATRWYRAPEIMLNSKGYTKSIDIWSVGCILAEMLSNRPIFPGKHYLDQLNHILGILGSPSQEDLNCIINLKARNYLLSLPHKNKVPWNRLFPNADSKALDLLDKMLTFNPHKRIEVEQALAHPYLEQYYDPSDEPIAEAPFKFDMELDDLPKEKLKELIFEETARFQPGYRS

Sequence of CYP3A4 (P08684 whole entry): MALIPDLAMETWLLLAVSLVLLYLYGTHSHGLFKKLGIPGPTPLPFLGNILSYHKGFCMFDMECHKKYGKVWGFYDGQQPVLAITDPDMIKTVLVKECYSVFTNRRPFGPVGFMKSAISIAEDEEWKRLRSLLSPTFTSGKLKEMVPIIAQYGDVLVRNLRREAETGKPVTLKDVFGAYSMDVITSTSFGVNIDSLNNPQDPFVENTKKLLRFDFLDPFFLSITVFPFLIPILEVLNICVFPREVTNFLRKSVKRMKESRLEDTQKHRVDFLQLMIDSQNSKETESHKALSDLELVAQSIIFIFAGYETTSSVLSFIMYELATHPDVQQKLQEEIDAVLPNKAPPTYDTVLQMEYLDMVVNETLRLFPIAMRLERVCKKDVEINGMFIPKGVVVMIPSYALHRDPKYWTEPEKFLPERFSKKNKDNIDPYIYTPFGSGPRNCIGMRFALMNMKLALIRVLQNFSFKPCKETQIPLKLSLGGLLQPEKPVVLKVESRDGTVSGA

| SMILES | half-life at 40 min, 1 µM (in vitro [1]) [min] | half-life at 40 min, 1 µM (in vitro [2]) [min] | clearance at 24 h (in vivo [3]) [mL/min/kg] | Vd at 24 h (in vivo [4]) [L/kg] | AUC at 24 h (in vivo [5]) [ng·h/mL] | half-life at 24 h (in vivo [6]) [min] | bioavailability at 24 h (in vivo [7]) [%] | chromatographic logD (physchem) | half-life at 40 min, 1 µM (CYP3A4) [min] | IC50 (COLO 205) [nM] | IC50 (A-375) [nM] | inhibition [8] [%] |
| --- | --- | --- | --- | --- | --- | --- | --- | --- | --- | --- | --- | --- |
| O=C(CN1Cc2ccc(-c3nc(NC4CCOCC4)ncc3Cl)cc2C1=O)N1CCCc2ccccc2C1 | < 5 | < 5 | – | – | – | – | – | – | – | – | – | – |
| Cc1cccc([C@@H](CO)NC(=O)CN2Cc3ccc(-c4nc(NC5CCOCC5)ncc4Cl)cc3C2=O)c1 | 65 | 40 | 11 | 0.55 | 3000 | 150 | 41 | 3 | – | – | – | – |
| C[C@H](C(=O)N[C@H](CO)c1cc(F)cc(N2CCN(C)CC2)c1)N1Cc2ccc(-c3nc(NC4CCOCC4)ncc3Cl)cc2C1=O | – | 51 | 124 | 3.8 | 18 | – | – | 3.6 | – | – | – | – |
| Cc1cccc([C@@H](CO)NC(=O)[C@@H](C)N2Cc3ccc(-c4nc(NC5CCOCC5)ncc4Cl)cc3C2=O)c1 | 31 | 12 | – | – | – | – | – | 3.9 | – | – | – | – |
| COc1cccc([C@@H](CO)NC(=O)[C@@H](C)N2Cc3ccc(-c4nc(NC5CCOCC5)ncc4Cl)cc3C2=O)c1 | 100 | 27 | – | – | – | – | – | – | – | – | – | – |
| O=C(CN1Cc2ccc(-c3nc(NC4CCOCC4)ncc3Cl)cc2C1=O)N1CCc2ccccc2CC1 | 28 | 17 | 19 | 0.45 | 440 | 84 | 10 | 4.7 | 28 | – | – | – |
| COc1cc(F)cc([C@@H](CO)NC(=O)[C@@H](C)N2Cc3ccc(-c4nc(Nc5cnn(C)n5)ncc4Cl)cc3C2=O)c1 | 26 | 26 | 8.3 | 0.46 | 6400 | 90 | 64 | 3.7 | 19 | 15 | – | – |
| C[C@H](C(=O)N[C@H](CO)c1cc(F)cc(F)c1)N1Cc2ccc(-c3nc(NC4CCOCC4)ncc3Cl)cc2C1=O | 49 | 23 | – | – | – | – | – | – | < 5 | – | – | – |
| COc1cc(F)cc([C@@H](CO)NC(=O)[C@@H](C)N2Cc3ccc(-c4nc(Nc5ccnc(OC)c5)ncc4Cl)cc3C2=O)c1 | 31 | 25 | 4.6 | 0.56 | 4100 | 60 | 23 | 4.2 | 27 | – | – | – |
| O=C(CN1Cc2ccc(-c3nc(NC4CCOCC4)ncc3Cl)cc2C1=O)N[C@@]1(CO)CCc2ccccc21 | 20 | 10 | 35 | 0.91 | 960 | 53.4 | 40 | 3.6 | – | – | – | – |
| C[C@H](C(=O)N[C@H](CO)c1cc(F)cc(OCCN(C)C)c1)N1Cc2ccc(-c3nc(NC4CCOCC4)ncc3Cl)cc2C1=O | – | 60 | – | – | – | – | – | – | 10 | – | – | – |
| COc1cc(F)cc([C@@H](CO)NC(=O)[C@@H](C)N2Cc3ncc(-c4nc(NC5CCOCC5)ncc4Cl)cc3C2=O)c1 | – | 36 | 37 | 1.9 | 500 | 114 | 23 | 3.2 | 23 | 8 | – | – |
| COc1cc(F)cc([C@@H](CO)NC(=O)CN2Cc3ccc(-c4nc(NC5CCOCC5)ncc4Cl)cc3C2=O)c1 | 86 | 31 | 54 | 1.4 | 150 | 90 | 10 | 3.3 | – | – | 4 | – |
| C[C@H](C(=O)N[C@H](CO)c1cccc(N2CCN(C)CC2)n1)N1Cc2ccc(-c3nc(NC4CCOCC4)ncc3Cl)cc2C1=O | 120 | 36 | 8.7 | 0.76 | 1300 | 60 | 15 | 3.3 | 17 | – | – | – |
| COc1cc(F)cc([C@@H](CO)NC(=O)[C@@H](C)N2Cc3ccc(-c4nc(N[C@@H](C)CO)ncc4Cl)cc3C2=O)c1 | – | 28 | 23 | 1.4 | 310 | 108 | 9 | 3.1 | 29 | – | – | – |
| COc1cc(F)cc([C@@H](CO)NC(=O)[C@@H](C)N2Cc3ccc(-c4nc(Nc5ccnn5C)ncc4Cl)cc3C2=O)c1 | 35 | 23 | 13 | 0.52 | 824 | 66 | 13 | 3.3 | 13 | 10 | – | – |
| COc1cc(F)cc([C@@H](CO)NC(=O)[C@@H](C)N2Cc3ccc(-c4ccnc(NC5CCOCC5)n4)cc3C2=O)c1 | – | 62 | 17 | 1 | 320 | 72 | 7 | 3.2 | 49 | 15 | – | – |
| COc1cc(F)cc([C@@H](CO)NC(=O)[C@@H](C)N2Cc3ccc(-c4nc(NC5COC5)ncc4Cl)cc3C2=O)c1 | – | 29 | 9.4 | 0.71 | 2650 | 102 | 30 | 3.3 | 50 | 12 | – | 49 |
| O=C(CN1Cc2ccc(-c3nc(NC4CCOCC4)ncc3Cl)cc2C1=O)NCc1ccccc1 | 65 | 32 | – | – | – | – | – | – | – | – | – | – |
| COc1cc([C@@H](CO)NC(=O)[C@@H](C)N2Cc3ccc(-c4nc(NC5CCOCC5)ncc4Cl)cc3C2=O)ccn1 | 120 | 33 | 6.8 | 0.26 | 2400 | 90 | 20 | 3 | – | – | – | – |
| COc1cc(F)cc([C@@H](CO)NC(=O)CN2C(=O)c3cc(-c4nc(NC5CCOCC5)ncc4Cl)ccc3[C@H]2C)c1 | – | 22 | – | – | – | – | – | – | 7.3 | – | – | – |
